{"source": "paper PMC8187380", "about": "“Lipophilic nanocrystal prodrug-release defines the extended pharmacokinetic profiles of a year-long cabotegravir” (Nature Communications, 2021)", "key": {"[1]": {"parameters": "method as in PMID 26340566, PMID 26049948", "settings": "cited from earlier work"}, "[2]": {"test_system": "human monocyte-derived macrophages (MDMs)", "experiment": "Cellular uptake, retention and release in macrophages", "format": "cell-based", "settings": "for Percent taken up by MDMs: 8 h, 10 µM", "method": "Human peripheral blood monocytes were obtained by leukapheresis from HIV-1,2 and hepatitis B seronegative donors and purified by centrifugal elutriation. Monocytes were cultured for the first seven days in macrophage colony stimulating factor enriched media (MCSF, 1000 U/ml) to facilitate cell vitality and differentiation into macrophages[15],[29]. […] Cells were maintained in clear flat-bottom 12-well plates at 37 °C in a 5% CO2 incubator at a density of 1.0 × 10^6 cells per well. Half-culture media was replaced with fresh media every other day. After differentiation, MDM were utilized for CAB prodrug or drug nanoparticle uptake, retention and release. […] At days 1, 5, 10, 15, 20, and 30, adherent MDM were washed twice with PBS, scraped into PBS, and counted using an Invitrogen Countess Automated Cell Counter (Carlsbad, CA). Cell suspension was then centrifuged at 900 × g for 8 min at 4 °C. […] To quantify release kinetics, drug concentrations were measured in samples collected from the culture media from the same retention experiment using preloaded MDMs, at the same time when cells were harvested to quantify intracellular drug retention."}, "[3]": {"settings": "cited from earlier work"}, "HIV-1": {"test_system": "HIV-1", "settings": "no reference given; cited from earlier work"}, "SHIV": {"test_system": "SHIV", "parameters": "method as in PMID 24594934", "settings": "NHP, cited from earlier work"}, "[4]": {"experiment": "Metabolic stability in blood", "format": "in vitro ADME, mouse, rat, rabbit, monkey, dog, human", "settings": "for Stability in blood: 24 h", "method": "[…] The samples were then centrifuged at 16,000 × g for 10 min after which 10 µl of the supernatant was mixed with 80% methanol (containing 0.1% FA and 2.5 mM AF) containing an internal standard (IS) and analyzed by LC-MS/MS. For the time zero start time, a 100 µl of ice-cold blood was spiked with M2CAB and immediately 0.9 ml of methanol (containing 0.1% FA and 2.5 mM AF) was added. Heat-inactivated plasma was incubated at the same conditions and used as negative controls to differentiate chemical versus metabolic stability."}, "[5]": {"experiment": "Plasma/blood PK after single IM injection in male Balb/cJ mice (UNMC)", "format": "in vivo", "procedure": "In mice, inguinal, axillary, branchial, and cervical lymph nodes were collected and pooled, while in rats only cervical lymph nodes were collected. Following injection, blood samples were collected at 4 h, days 1, 2, 4, 7, 14, 28, 42, and 56 and then monthly for 12 months into EDTA tubes (blood sample time points were evenly distributed between the four groups). Fifty μl of blood was immediately transferred into 950 μl methanol (containing 0.1% FA and 2.5 mM AF), vortexed, and stored at −80 °C until drug analysis. The remaining portion of the blood samples were centrifuged at 2000 × g for 5 min for plasma collection, which was stored at −80 °C until drug analysis. […] Plasma samples were collected up to day 672 and CAB and M2CAB quantification were performed by LC-MS/MS.\nFor blood samples, 50 µl blood collected in 950 µl of methanol was vortexed, centrifuged at 16,000 × g for 10 min at 4 °C, and 50 µl supernatant was aspirated, mixed with 50 µl IS [20 ng/ml d3-dolutegravir (d3-DTG) and 40 ng/ml stearoylated darunavir (SDRV)] in 70% methanol (containing 0.1% FA and 2.5 mM AF). d3-DTG was used as the IS (final concentration = 10 ng/ml) for the quantification of CAB, and SDRV (final concentration = 20 ng/ml) was used as the IS for quantification of M2CAB. Ten µl of the sample was analyzed by LC-MS/MS for CAB and M2CAB. […]"}, "CYP450": {"test_system": "CYP450", "parameters": "method as in PMID 26340566, PMID 26049948", "settings": "cited from earlier work"}, "[6]": {"parameters": "method as in PMID 30387005", "settings": "in water; cited from earlier work"}, "[7]": {"settings": "macaques; cited from earlier work"}, "[8]": {"experiment": "Stability in macrophage cell culture media and MDM-cell lysate", "format": "in vitro ADME, human", "settings": "M2CAB solution"}, "[9]": {"experiment": "Metabolic stability in liver S9 fractions", "format": "in vitro ADME, mouse, rat, rabbit, monkey, dog, human", "settings": "six species, 2 h incubation, 1 µM", "method": "The metabolic stabilities of CAB and M2CAB were determined using mouse, rat, rabbit, dog, monkey, and human liver S9 fractions (XenoTech, LLC, Lenexa, KS, USA). Briefly, CAB and M2CAB were incubated at 1 µM in a 100 µl mixture containing S9 fractions at 1 mg/ml protein concentration, NADPH (1 mM), saccharolactone (5 mM), uridine 5′-diphospho-glucuronic acid (UDPGA) (1 mM), and 3′-phosphoadenosin-5′-phosphosulphate (PAPS) ([…]) in PBS (100 mM, pH 7.4) at 37 °C. For each time point (0, 30, and 120 min), reactions were quenched by adding 0.9 ml of methanol (containing 0.1% FA and 2.5 mM AF), followed by centrifugation at 15,000 × g for 10 min. Ten microliters of the supernatants were then analyzed by LC-MS/MS. Heat-inactivated S9 fractions were incubated at the same conditions and used as negative controls. Hydroxycoumarin (7-HC) metabolites including 7-HC-glucuronide and 7-HC-sulfate, and the testosterone metabolite 6β-hydroxytestosterone were used as positive controls for phase I and phase II metabolism."}, "[10]": {"experiment": "Chemical (pH) stability of unformulated M2CAB", "format": "physicochemical", "settings": "37 °C, 24 h, 1 μM", "method": "Next, we assessed the chemical stability of the solubilized form of M2CAB at a range of pHs [pH 1.0 (0.1 M HCl), pH 7.4 (PBS), pH 8.3 (heat-inactivated plasma) and pH 11.0 (0.1 M NaOH)]. […] At 24 h, percent M2CAB recovered was 87, 52, 5, and 2 at pH 1.0, pH 7.4, pH 8.3 and pH 11.0, respectively (Supplementary Fig. 3). Reductions in M2CAB prodrug concentrations paralleled native CAB formation, indicating the hydrolysis of the prodrug M2CAB into parent CAB.\nSupplementary Figure 3. M2CAB pH stability. Chemical stability profile of M2CAB at pH 1.0 (0.1 M HCl), pH 7.4 (PBS), pH 8.3 (heat inactivated plasma) and pH 11.0 (0.1 M NaOH) at 1 μM drug concentration. (a) Percent M2CAB remaining vs. time profile for M2CAB; (b) Percent CAB formation vs. time profile from M2CAB. Data are expressed as mean (N = 2 replicates per time point). Each experiment was repeated independently two times with equivalent results.\n(1 picture or pasted object on this page, not shown here)"}, "[11]": {"experiment": "Metabolic stability in rat tissue homogenates", "format": "in vitro ADME", "method": "For metabolic stability in tissues, freshly collected rat liver, spleen, muscle, and lymph node tissues were homogenized in five-volumes of PBS (w/v). […] At different time points (0, 30 min, 2 h, and 6 h), 0.9 ml of methanol (containing 0.1% FA and 2.5 mM AF) was added to each sample and vortexed for 3 min. Samples were centrifuged at 16,000 × g for 10 min, 10 µl supernatant was mixed with 80% methanol (containing 0.1% FA and 2.5 mM AF) containing IS and analyzed by LC-MS/MS."}}, "note": "Where two headings read alike, the source gives them in different places.", "data": [{"smiles": "C[C@H]1CO[C@@H]2Cn3cc(C(=O)NCc4ccc(F)cc4F)c(=O)c(O)c3C(=O)N12", "note": "[CAB, cabotegravir]", "values": [{"measurement": "Membrane permeability", "setting": "[1]", "result": "high"}, {"measurement": "Percent taken up by MDMs", "setting": "[2]", "result": "≤ 0.1", "unit": "%"}, {"measurement": "Intracellular CAB levels in MDMs", "setting": "[2]; after 8 h drug loading at 10 µM", "result": "below or at the limit of detection within hours"}, {"measurement": "Oral bioavailability", "setting": "[3]", "result": "near-complete"}, {"measurement": "Plasma half-life", "setting": "[3]", "result": "30 to 40", "unit": "h"}, {"measurement": "Eliminated unchanged in feces", "setting": "[3]; humans", "result": "up to 50%"}, {"measurement": "Glucuronide metabolites in urine", "setting": "[3]; humans", "result": 27, "unit": "%"}, {"measurement": "Terminal phase half-life", "setting": "[3]; humans", "result": "504 to 1200", "unit": "h"}, {"measurement": "Unidentified metabolites in feces", "setting": "[3]; humans", "result": 10, "unit": "%"}, {"measurement": "tmax (oral absorption)", "setting": "[3]; oral", "result": "1.5 to 2", "unit": "h"}, {"measurement": "Protein-adjusted 90% inhibitory concentration (PA-IC90)", "setting": "HIV-1", "result": 0.166, "unit": "µg/mL"}, {"measurement": "Protection against intrarectal SHIV challenge", "setting": "SHIV; plasma CAB concentrations >3×PA-IC90", "result": 100, "unit": "%"}, {"measurement": "Protection against intrarectal SHIV challenge", "setting": "SHIV; plasma CAB concentrations ≥1×PA-IC90", "result": 97, "unit": "%"}, {"measurement": "Stability in blood", "setting": "[4]; all species, 1 µM, 37 °C", "result": "stable"}, {"measurement": "Percent of CAB recovered", "setting": "[4]; blood, all six species, by 24 h", "result": "more than 90%"}, {"measurement": "Fold CAB blood concentration lower than plasma concentration", "setting": "[5]; all samples (mice and rats)", "result": "~2", "unit": "fold"}, {"measurement": "Affinity for CYP450", "setting": "CYP450", "result": "low"}, {"measurement": "Aqueous solubility", "setting": "[6]", "result": 15, "unit": "µg/mL"}, {"measurement": "Terminal phase half-life", "setting": "[7]", "result": "72 to 288", "unit": "h"}]}, {"smiles": "CCCCCCCCCCCCCCCCCC(=O)Oc1c2n(cc(C(=O)NCc3ccc(F)cc3F)c1=O)C[C@H]1OC[C@H](C)N1C2=O", "note": "[M2CAB]", "values": [{"measurement": "Percent taken up by MDMs", "setting": "[2]", "result": "up to 30%"}, {"measurement": "Percent released into the media (recovered as CAB)", "setting": "[2]; MDMs, within days", "result": "< 95", "unit": "%"}, {"measurement": "Percent of intracellular drug retained by MDMs", "setting": "[2]; one month after 8 h loading at 10 µM", "result": 4, "unit": "%"}, {"measurement": "Time to complete hydrolysis into CAB in cell lysates", "setting": "[8]", "result": "≤ 7", "unit": "days"}, {"measurement": "Time to complete hydrolysis into CAB in media", "setting": "[8]", "result": "≤ 3", "unit": "days"}, {"measurement": "Stability in blood", "setting": "[4]; all species, 1 µM, 37 °C", "result": "unstable"}, {"measurement": "Percent of M2CAB hydrolyzed", "setting": "[4]; blood of dog, monkey, mouse, rat, rabbit, human, after 6 h, 1 µM, 37 °C", "result": "Greater than 80%"}, {"measurement": "Time within which M2CAB was hydrolyzed into the parent CAB", "setting": "[4]; blood, all species", "result": "≤ 6", "unit": "h"}, {"measurement": "Stability in heat-inactivated plasma", "setting": "[4]; control, 1 µM, 37 °C", "result": "unstable"}, {"measurement": "Blood concentration of the prodrug as percent of CAB", "setting": "[5]; mice and rats, after NM2CAB", "result": "< 1", "unit": "%"}, {"measurement": "Percent of M2CAB lost", "setting": "[9]", "result": "< 25", "unit": "%"}, {"measurement": "Percent M2CAB recovered", "setting": "[10]; pH 1.0 (0.1 M HCl)", "result": 87, "unit": "%"}, {"measurement": "Percent M2CAB recovered", "setting": "[10]; pH 7.4 (PBS)", "result": 52, "unit": "%"}, {"measurement": "Percent M2CAB recovered", "setting": "[10]; pH 8.3 (heat-inactivated plasma)", "result": 5, "unit": "%"}, {"measurement": "Percent M2CAB recovered", "setting": "[10]; pH 11.0 (0.1 M NaOH)", "result": 2, "unit": "%"}, {"measurement": "Stability in heat-inactivated liver homogenate", "setting": "[11]; control", "result": "unstable"}, {"measurement": "Percent of M2CAB remaining/recovered", "setting": "[11]; rat tissue homogenates, after 6 h incubation, 1 µM", "result": "50–80%"}]}]}
